Data taken from patent US20030181527A1, “Novel formulations of alpha-2,4-disulfophenyl-n-tert-butylnitrone” (priority 2000, published 2003).

Tests used:
Format in all cases: physicochemical
[1] = Stability after purging with different air/nitrogen gas mixtures; conditions: 400 mg/ml, pH 8.5; for Final Amount of Aldehyde (II) / Final Amount of Related Substances: 2 months +40° C./75% RH
Experimental: A concentrated aqueous solution of α-(2,4-disulfophenyl)-N-tert-butylnitrone disodium salt (400 mg/ml) and disodium hydrogen phosphate (5.3 mM) at pH 8.5 was purged with different levels of air/nitrogen gas mixtures. The solutions were stored in sealed 10 ml glass vials with a fill volume of 7 ml. The samples were stored for two months at +40° C. and 75% relative humidity.

[2] = Stability versus vial headspace volume (fill volume); conditions: 400 mg/ml; for Final Amount of Aldehyde (II): pH 8.5, headspace not purged, 2 months +40° C./75% RH
Experimental: A concentrated aqueous solution of α-(2,4-disulfophenyl)-N-tert-butylnitrone disodium salt (400 mg/ml) and disodium hydrogen phosphate (10.5 mM) at pH 8.5 was purged with nitrogen for 30 minutes. Either 8 ml or 13 ml portions of this solution were then placed in standard 10 ml glass vials (the maximum possible fill volume of a standard 10 ml glass vial is 13 ml). The headspace was not purged with nitrogen. The vials were sealed and stored at +40° C. and 75% relative humidity for two months.

[3] = Stability versus concentration, vial size and headspace gas at +40° C. (Table 6)
Experimental: For the 10 ml vial size, the fill volume was 10.7 ml; and for the 20 ml vial size, the fill volume was 20.7 ml.

[4] = Effect of concentration on stability, unbuffered solutions at +5° C.
Experimental: In a second study unbuffered aqueous solutions of α-(2,4-disulfophenyl)-N-tert-butylnitrone disodium salt (concentration either 100 mg/ml or 200 mg/ml) were dispensed into 50 ml glass vials and stored at +5° C.

[5] = Effect on pH and stability of dilution of aqueous concentrates in 0.9% sodium chloride; conditions: 400 mg/ml concentrate, 7 ml diluted in 500 ml 0.9% NaCl, room temperature
Experimental: Three batches of an aqueous concentrate of α-(2,4-disulfophenyl)-N-tert-butylnitrone disodium salt (400 mg/ml) were prepared and adjusted to pH 8.5. One concentrate was unbuffered and the other two concentrates were buffered with respectively 2.6 or 26 mM disodium hydrogen phosphate. In each case a 7 ml portion of the concentrate was transferred into 0.9% sodium chloride solution (500 ml) contained in a PVC bag. The bags were the stored at room temperature, protected from light, for 48 hours. Samples were taken out at 0, 24 and 48 hours and analysed.

[6] = Stability of buffered and unbuffered solutions and concentrates at room temperature
Source text: In a further study the stability of both buffered (sodium hydrogen carbonate) and unbuffered aqueous solutions and concentrates of α-(2,4-disulfophenyl)-N-tert-butylnitrone disodium salt stored at room temperature were compared. […] The buffered solutions show no apparent concentration dependent decomposition due to the short storage time and moderate storage temperature.

[7] = Shelf life of the preferred concentrate formulation; conditions: 400 mg/ml, 5 to 50 mM disodium hydrogen phosphate, pH 8.5, nitrogen purged, sealed 20 ml vials
[8] = unbuffered 100 mg/ml, 12 months
[9] = unbuffered 200 mg/ml, 12 months
[10] = 7.5 mg/ml buffered (sodium hydrogen carbonate), 0 hours
[11] = 7.5 mg/ml buffered (sodium hydrogen carbonate), 48 hours
[12] = 75 mg/ml buffered (sodium hydrogen carbonate), 0 hours
[13] = 75 mg/ml buffered (sodium hydrogen carbonate), 48 hours
[14] = 150 mg/ml buffered (sodium hydrogen carbonate), 0 hours
[15] = 150 mg/ml buffered (sodium hydrogen carbonate), 48 hours

- Initial aldehyde (II) ([1]; 5.3 mM phosphate, initial): 0.25 area %
- Initial related substances ([1]; 5.3 mM phosphate, initial): 0.56 area %
- Final Amount of Aldehyde (II) ([1]; 0% air in purge gas): 0.57 area %
- Final Amount of Related Substances ([1]; 0% air in purge gas): 1.3 area %
- Final Amount of Aldehyde (II) ([1]; 6.25% air in purge gas): 0.68 ± 0.08 (n = 2) area %
- Final Amount of Related Substances ([1]; 6.25% air in purge gas): 1.5 ± 0.1 (n = 2) area %
- Final Amount of Aldehyde (II) ([1]; 12.5% air in purge gas): 0.63 ± 0.01 (n = 2) area %
- Final Amount of Related Substances ([1]; 12.5% air in purge gas): 1.4 area %
- Final Amount of Aldehyde (II) ([1]; 25% air in purge gas): 0.77 area %
- Final Amount of Related Substances ([1]; 25% air in purge gas): 1.6 area %
- Final Amount of Aldehyde (II) ([1]; 50% air in purge gas): 0.93 area %
- Final Amount of Related Substances ([1]; 50% air in purge gas): 1.9 area %
- Final Amount of Aldehyde (II) ([1]; 100% air in purge gas): 1.27 area %
- Final Amount of Related Substances ([1]; 100% air in purge gas): 2.4 area %
- Initial aldehyde level ([2]; 10.5 mM phosphate, pH 8.5, nitrogen purged, initial): 0.1%
- Final Amount of Aldehyde (II) ([2]; fill volume 8 ml in 10 ml vial): 1.1 area %
- Final Amount of Aldehyde (II) ([2]; fill volume 13 ml in 10 ml vial): 0.6 area %
- Amount of Aldehyde (II) ([3]; 50 mg/ml, 10 ml vial, N2 in headspace, 2 months at +40° C.): 1.4 w/w %
- Amount of Aldehyde (II) ([3]; 50 mg/ml, 10 ml vial, N2 in headspace, 3 months at +40° C.): 1.5 w/w %
- Amount of Aldehyde (II) ([3]; 50 mg/ml, 10 ml vial, N2 in headspace, 6 months at +40° C.): 1.7 w/w %
- Amount of Aldehyde (II) ([3]; 50 mg/ml, 10 ml vial, N2 in headspace, initial): 0.2 w/w %
- Amount of Aldehyde (II) ([3]; 50 mg/ml, 10 ml vial, air in headspace, 2 months at +40° C.): 2.8 w/w %
- Amount of Aldehyde (II) ([3]; 50 mg/ml, 10 ml vial, air in headspace, 3 months at +40° C.): 3.3 w/w %
- Amount of Aldehyde (II) ([3]; 50 mg/ml, 10 ml vial, air in headspace, 6 months at +40° C.): 3.5 w/w %
- Amount of Aldehyde (II) ([3]; 50 mg/ml, 10 ml vial, air in headspace, initial): 0.2 w/w %
- Amount of Aldehyde (II) ([3]; 100 mg/ml, 10 ml vial, air in headspace, 2 months at +40° C.): 1.8 w/w %
- Amount of Aldehyde (II) ([3]; 100 mg/ml, 10 ml vial, air in headspace, initial): 0.2 w/w %
- Amount of Aldehyde (II) ([3]; 400 mg/ml, 10 ml vial, N2 in headspace, 2 months at +40° C.): 0.5 w/w %
- Amount of Aldehyde (II) ([3]; 400 mg/ml, 10 ml vial, N2 in headspace, 3 months at +40° C.): 0.6 w/w %
- Amount of Aldehyde (II) ([3]; 400 mg/ml, 10 ml vial, N2 in headspace, initial): 0.3 w/w %
- Amount of Aldehyde (II) ([3]; 400 mg/ml, 10 ml vial, air in headspace, 2 months at +40° C.): 0.8 w/w %
- Amount of Aldehyde (II) ([3]; 400 mg/ml, 10 ml vial, air in headspace, 3 months at +40° C.): 0.9 w/w %
- Amount of Aldehyde (II) ([3]; 400 mg/ml, 10 ml vial, air in headspace, initial): 0.3 w/w %
- Amount of Aldehyde (II) ([3]; 400 mg/ml, 20 ml vial, N2 in headspace, 2 months at +40° C.): 0.5 w/w %
- Amount of Aldehyde (II) ([3]; 400 mg/ml, 20 ml vial, N2 in headspace, 3 months at +40° C.): 0.5 w/w %
- Amount of Aldehyde (II) ([3]; 400 mg/ml, 20 ml vial, N2 in headspace, initial): 0.3 w/w %
- Amount of Aldehyde (II) ([3]; 400 mg/ml, 20 ml vial, air in headspace, 2 months at +40° C.): 0.7 w/w %
- Amount of Aldehyde (II) ([3]; 400 mg/ml, 20 ml vial, air in headspace, 3 months at +40° C.): 0.8 w/w %
- Amount of Aldehyde (II) ([3]; 400 mg/ml, 20 ml vial, air in headspace, initial): 0.3 w/w %
- Amount of Aldehyde (II) ([4]; unbuffered 100 mg/ml, 0 months): 0.2 Area %
- pH ([4]; unbuffered 100 mg/ml, 0 months): 7.4
- Amount of Aldehyde (II) ([4]; unbuffered 100 mg/ml, 1 month): 0.5 Area %
- pH ([4]; unbuffered 100 mg/ml, 1 month): 7.5
- Amount of Aldehyde (II) ([4]; unbuffered 100 mg/ml, 3 months): 1.0 Area %
- pH ([4]; unbuffered 100 mg/ml, 3 months): 7.3
- Amount of Aldehyde (II) ([4]; unbuffered 100 mg/ml, 6 months): 1.6 Area %
- pH ([4]; unbuffered 100 mg/ml, 6 months): 7.1
- Amount of Aldehyde (II) [4, 8]: 1.6 Area %
- pH [4, 8]: 6.9
- Amount of Aldehyde (II) ([4]; unbuffered 200 mg/ml, 0 months): 0.2 Area %
- pH ([4]; unbuffered 200 mg/ml, 0 months): 7.6
- Amount of Aldehyde (II) ([4]; unbuffered 200 mg/ml, 1 month): 0.4 Area %
- pH ([4]; unbuffered 200 mg/ml, 1 month): 7.6
- Amount of Aldehyde (II) ([4]; unbuffered 200 mg/ml, 3 months): 0.6 Area %
- pH ([4]; unbuffered 200 mg/ml, 3 months): 7.4
- Amount of Aldehyde (II) ([4]; unbuffered 200 mg/ml, 6 months): 0.8 Area %
- pH ([4]; unbuffered 200 mg/ml, 6 months): 7.4
- Amount of Aldehyde (II) [4, 9]: 1.1 Area %
- pH [4, 9]: 6.9
- Amount of Aldehyde (II) ([5]; 2.6 mM phosphate, 0 hours): 0.30 Area %
- pH ([5]; 2.6 mM phosphate, 0 hours): 6.50
- Amount of Aldehyde (II) ([5]; 2.6 mM phosphate, 24 hours): 0.44 Area %
- pH ([5]; 2.6 mM phosphate, 24 hours): 6.69
- Amount of Aldehyde (II) ([5]; 2.6 mM phosphate, 48 hours): 0.57 Area %
- pH ([5]; 2.6 mM phosphate, 48 hours): 6.67
- Amount of Aldehyde (II) ([5]; 26 mM phosphate, 0 hours): 0.17 Area %
- pH ([5]; 26 mM phosphate, 0 hours): 7.43
- Amount of Aldehyde (II) ([5]; 26 mM phosphate, 24 hours): 0.20 Area %
- pH ([5]; 26 mM phosphate, 24 hours): 7.39
- Amount of Aldehyde (II) ([5]; 26 mM phosphate, 48 hours): 0.25 Area %
- pH ([5]; 26 mM phosphate, 48 hours): 7.38
- Amount of Aldehyde (II) ([5]; no buffer, 0 hours): 0.25 Area %
- pH ([5]; no buffer, 0 hours): 6.01
- Amount of Aldehyde (II) ([5]; no buffer, 24 hours): 0.68 Area %
- pH ([5]; no buffer, 24 hours): 6.32
- Amount of Aldehyde (II) ([5]; no buffer, 48 hours): 0.89 Area %
- pH ([5]; no buffer, 48 hours): 6.48
- Amount of Aldehyde (II) [6, 10]: 0.6 Area %
- pH [6, 10]: 8.1
- Amount of Aldehyde (II) [6, 11]: 0.7 Area %
- pH [6, 11]: 8.7
- Amount of Aldehyde (II) ([6]; 7.5 mg/ml unbuffered, 0 hours): 1.0 Area %
- pH ([6]; 7.5 mg/ml unbuffered, 0 hours): 5.8
- Amount of Aldehyde (II) ([6]; 7.5 mg/ml unbuffered, 48 hours): 2.4 Area %
- pH ([6]; 7.5 mg/ml unbuffered, 48 hours): 6.3
- Amount of Aldehyde (II) [6, 12]: 0.6 Area %
- pH [6, 12]: 8.0
- Amount of Aldehyde (II) [6, 13]: 0.7 Area %
- pH [6, 13]: 8.1
- Amount of Aldehyde (II) ([6]; 75 mg/ml unbuffered, 0 hours): 1.1 Area %
- pH ([6]; 75 mg/ml unbuffered, 0 hours): 6.1
- Amount of Aldehyde (II) ([6]; 75 mg/ml unbuffered, 48 hours): 1.9 Area %
- pH ([6]; 75 mg/ml unbuffered, 48 hours): 6.7
- Amount of Aldehyde (II) [6, 14]: 0.6 Area %
- pH [6, 14]: 7.9
- Amount of Aldehyde (II) [6, 15]: 0.7 Area %
- pH [6, 15]: 7.8
- Amount of Aldehyde (II) ([6]; 150 mg/ml unbuffered, 0 hours): 1.0 Area %
- pH ([6]; 150 mg/ml unbuffered, 0 hours): 6.1
- Amount of Aldehyde (II) ([6]; 150 mg/ml unbuffered, 48 hours): 1.7 Area %
- pH ([6]; 150 mg/ml unbuffered, 48 hours): 6.7
- Remains in useable condition ([7]; stored at room temperature): at least 6 months
- Shelf life ([7]; stored refrigerated (approximately 2 to 8° C.)): at least 24 months
SMILES: CC(C)(C)[N+]([O-])=Cc1ccc(S(=O)(=O)[O-])cc1S(=O)(=O)[O-].[Na+].[Na+] [α-(2,4-disulfophenyl)-N-tert-butylnitrone disodium salt]
